Measured values as given in US9255263B2, “Antithrombotic compounds” (King's College London, priority 2009, dated 2016).
“And” between values parts separate entries of the source, which are not always exact repeats. Identical values can stand only once. Where no end group is shown, it is not given here. The star is where a group is joined. Myristoyl = CCCCCCCCCCCCCC(=O)*

Columns and labels:
[1] = tested on: Human CD34-derived progenitor cells; assay: Human plasma recalcification (clotting) assay with prothrombotic cells; format: cell-based; settings: for effect on cell-promoted fibrin clot formation: cells pre-incubated with agent and washed
Method: Human plasma preparation: Human blood was drawn from volunteers with heparin and human plasma prepared by centrifugation, before storage at −80° C.
Human plasma recalcification assay (based on Lin et al Transplantation, 86(5):702-9, 2008): Human CD34-derived progenitor cells were suspended in 50 μl Tris-buffered saline and mixed with 100 μl of normal human plasma (Sigma) in glass tubes (Corning, Corning, N.Y.). Ten (10) μl of 250 mM CaCl2 in Tris-buffered saline combined with 90 μl phospholipids (Diagnostic Reagents, Oxford, UK) were added, and the tube incubated at 37° C. in a water bath—the time for a fibrin clot to form was determined in triplicate, during which time the tubes were continuously agitated by tilting. In some assays, cells were incubated with 200 uL of Compound 1 (50 uM) for 30 min at 4° C. before washing twice and inclusion in the clotting assay.

[2] = tested on: DA kidney graft in pre-sensitised Lewis recipients; format: in vivo, rat
From the text: Rat used were inbred male DA (RT1^a) and Lewis (RT1^i) at the age of 7-8 weeks and a weight of 150-200 g. The model of hyperimmune rejection was based on renal allografts from MHC Class I disparate donors and recipients with modifications to enable life-sustaining renal transplantation. Prior to transplantation, Lewis recipients were pre-sensitised by sequential grafting of three 2×2 cm full thickness skin DA grafts placed to the recipient's dorsal back. The first two skin transplants were received biweekly, followed by a four week period during which alloantibody reached its peak (data not shown), followed by the placement of a third skin graft.
Seven to ten days after the third skin graft, Lewis recipients received a DA kidney graft which had been perfused with different concentrations of Compound 1 (0.1-5 μM) and either flushed or not with Soltran solution (see above).
For the recipient preparation, a midline laparotomy was performed followed by removal of the left kidney. Microaneurysm clips (Johnson & Johnson, UK) were used to clamp the renal vein and artery. The donor kidney was transplanted orthotopically in an end to end anastomosis of the renal vein, artery and ureter using 10-0 sutures (BEAR MEDIC Corp, Japan). The donor and the recipient preparations were taking place simultaneously thus eliminating any cold ischemia. At the end of warm ischemia time, which was 30 minutes, the clips were removed and blood flow was restored to the transplanted kidney. Finally, a second native nephrectomy was performed making the transplanted kidney life-sustaining.
APT070 is a 23 kDa fragment of human complement receptor type 1(CR1) described in WO 98/0245. […] The inventors assessed the effects of these agents in the RATx model as a preliminary to combination studies with Compound 1. […]

human thrombin = human thrombin (Homo sapiens, UniProt P00734); assay: GPBC assay: compound bound to guinea pig erythrocytes against exogenous human thrombin; format: cell-based; settings: inhibitors 1 uM at cell-binding step, normalised for cell number
Method: Method and results. Guinea Pig Blood Cells (GPBCs Harlan, UK) were extensively washed with Gelatin Veronal Buffer (GVB, Sigma G6514). A fixed volume of cell suspension (100 ul containing about 10^8 cells) was then diluted 1:1 with GVB before Compounds 1 or 2 were added; control HLL was used at the same final concentration. Cells were incubated for 10 min at ambient temperature with gentle agitation. Three washes with GVB were performed (each with at least 500 ul GVB) before discarding the supernatant and leaving cell pellet as dry as possible. Cell pellet was then resuspended with GVB and hThrombin (between 0.01 and 0.1 units) was added: reaction volume was 460 ul. Cells were incubated for 3 min at 37° C. in a waterbath and after incubation, gently pelleted by centrifugation. Supernatant (˜400 ul) was recovered and spun again to remove any residual cells. Supernatant (380 ul) was transferred to a spectrophotometer and 70 µl of GVB and 50 ul thrombin substrate (1 mM in GVB) added. The sample adsorbance was recorded at 405 nm for 20 min at 25° C.
The cell-based thrombin inhibitory capacity of Compounds 1 and 2 were compared by normalising for cell number in the GPBC assay. […] Both values result from using inhibitors at 1 uM final concentration of the compounds at the cell-binding step.

RBCs = assay: Internalisation by 2-colour FACS on RBCs; format: cell-based
Method: To gain insight into internal versus external exposure of the compounds, cells treated with these materials were incubated with an antibody raised against hirudin (anti Hir-mAb) which cross-reacts with the HLL-1 peptide sequence. Compounds located on the outside of cells were detected by FACS using this antibody in combination with a secondary phycoerythrin (PE)-conjugated antibody, at different time points. This system enabled the ratios of externally presented compound (red PE plus green FAM fluorescence) and internalised compound (green fluorescence only) to be estimated.

[3] = Solubility observed during preparation; format: physicochemical
Method: N-myristoyl-GSSKSPSKKKKKKPGDC(S-2-thiopyridyl)-amide (containing SEQ ID NO. 4) (Smith R, Biochem. Soc. Transactions, 30: 1037-41, 2002) was prepared by solid phase synthesis. 0.1 ml of a solution of this conjugate (10 mg/ml) in DMSO was added to a solution of HLL-1 in PBS (4.8 mM, 0.2 ml). The mixture was held at 24° C. for 1 h and the concentration of 2-thiopyridine released calculated from the absorbance at 343 nm. […] After a further 30 min at 24° C., approximately 84% of the HLL peptide had reacted. The mixture was diluted to 2 ml with PBS (slight cloudiness was observed) and then concentrated using a Vivaspin 2 3 kDa cutoff PES membrane cartridge at 2500 rpm/4° C./90 min. […] Compound 3 has a theoretical molecular weight of 4403 daltons.

CC[C@H](C)[C@H](NC(=O)[C@H](CCC(=O)O)NC(=O)[C@H](CCC(=O)O)NC(=O)[C@H](Cc1ccccc1)NC(=O)[C@H](CC(=O)O)NC(=O)CNC(=O)[C@H](CC(=O)O)NC(=O)CNC(=O)CNC(=O)CNC(=O)CNC(=O)[C@@H]1CCCN1C(=O)[C@H](CCCNC(=N)N)NC(=O)[C@@H]1CCCN1C(=O)[C@H](N)Cc1ccccc1)C(=O)N1CCC[C@H]1C(=O)N[C@@H](CCC(=O)O)C(=O)N[C@@H](CCC(=O)O)C(=O)N[C@@H](Cc1ccc(O)cc1)C(=O)N[C@@H](CC(C)C)C(=O)NCC(=O)NCC(=O)N[C@@H](CS)C(N)=O [HLL, reference compound]
effect on cell-promoted fibrin clot formation [1]: little inhibition of cell-mediated clotting

Conjugate of Anticoagulant Peptide HLL-1 with 1,2-distearoyl-sn-glycero-3-phosphoethanolamine-N-[2-thiopropionyl(polyethyleneglycol)-2000] (FPRPGGGGDGDFEEIPEEYLGGC; not fully specified) [Compound 1]
time for a fibrin clot to form, mean of three tubes ([1]; cells pre-incubated with Compound 1 (50 uM) 30 min at 4° C., washed twice, re-calcified human plasma): 172 s
time for a fibrin clot to form, single tube ([1]; cells pre-incubated with Compound 1 (50 uM) 30 min at 4° C., washed twice, re-calcified human plasma, listed as C.1): 169 s and 172 s and 175 s
effect on cell-promoted fibrin clot formation [1]: inhibited this effect
survival after transplantation ([2]; donor kidney perfused with 2 uM, flushed, controls did not survive longer than 48 h): 5 to 6 days
BUN deterioration ([2]; donor kidney perfused with 2 uM, flushed, versus control): deterioration was significantly slower
threshold concentration for bleeding ([2]; rat, in vivo): around 10 nM

Conjugate of Anticoagulant Peptide HLL-1 with N-(α,ε bis-myristoyl lysine) SSKSPSKKDDKKPGDC-acid ({Myristoyl-K(myristoyl)}-SSKSPSKKDDKKPGDC-OH; also: C-terminal Cys disulfide-linked to HLL-1 peptide) [Compound 2]
ratio Compound 2/Compound 1 for the specific cell inhibition capacity (human thrombin; 0.05 U of thrombin): 2.1
ratio Compound 2/Compound 1 for the specific cell inhibition capacity (human thrombin; 0.1 U of thrombin): 1.3
total labelled cells (RBCs): 98%
externally detected percentage (RBCs; after 1 h): around 65%
cells red and green (compound displayed on outer cell membrane) (RBCs; initially): 82%

Conjugate of Anticoagulant Peptide HLL-1 with N-myristoyl-GSSKSPSKKKKKKPGDC(S-2-thiopyridyl)-amide (Myristoyl-GSSKSPSKKKKKKPGDC-NH2; not fully specified (residue 17); also: Cys S-2-thiopyridyl (activated form), conjugated to HLL-1 via Cys) [Compound 3]
DMSO needed to maintain solubility [3]: > 50 % v/v
solubility in aqueous buffers [3]: only limited solubility in aqueous buffers
